Reference: publication PMC10541456, “A phase I, single‐center, open‐label study to investigate the absorption, distribution, metabolism and excretion of encorafenib following a single oral dose of 100 mg [ ^14C] encorafenib in healthy male subjects” (Pharmacology Research & Perspectives, 2023)
Values joined by “and” are separate entries in the source; they are usually repeats but may differ in a detail not shown here. Equal entries are not always repeated.

Tests used:
[1] = Mass balance: excretion of radioactivity in urine and feces (LSC); assay type: in vivo, human
Protocol: (§1) This study (ClinicalTrials.gov ID, NCT01436656) was a single‐center, open‐label study to investigate the ADME of encorafenib after a single oral administration of 100 mg (90 μCi) [^14C] encorafenib in healthy male subjects. A total of four evaluable subjects were enrolled and dosed. The study consisted of a screening period, a baseline period, a single dose treatment and a 96 h post‐dose observation period. A safety follow‐up assessment by phone was conducted 30 days after administration of 100 mg (90 μCi) [^14C] encorafenib. Subjects completed an overnight fast of at least 10 h prior to administration of the study drug. Subjects were discharged from the clinical site provided that the subject's recovery of [^14C] encorafenib‐related radioactivity was at least 90% of the administered dose. The study duration period could be prolonged if the subject's recovery of related radioactivity was less than 90% by the fifth‐day post‐treatment or the subject had two consecutive 24‐h combined urine and fecal collections yielding ≥1% of dose.
(§2) Venous blood samples (18 mL/time point) were collected by either direct venipuncture or from an indwelling cannula inserted into a vein of the forearm into tubes containing potassium ethylene diamine tetra acetic acid (K2‐EDTA) at the following times for metabolite characterization, total radioactivity and parent drug analysis: Pre‐dose, 0.5, 1, 1.5, 2, 3, 4, 6, 8, 12, 24, 48, 72, 96, 120 and 144 h post‐dose. Urine samples were collected into pre‐weighed, uniquely labeled containers pre‐dose (before drug administration) and at the following intervals: 0–4, 4–8, 8–24, 24–48, 48–72, 72–96, 96–120 and 120–144 h post‐dose. Feces samples were collected quantitatively into uniquely labeled, polypropylene containers pre‐dose (before drug administration) and individually until 144 h post‐dose. Urine and feces samples were frozen at −20°C and blood samples at −70°C.
Analysis of total radioactivity data in plasma, blood, feces, and urine was performed by Covance Laboratories Inc. All sample combustions were performed in a Model 307 Sample Oxidizer (Packard Instrument Company) and the resulting ^14CO2 was trapped in a mixture of Perma Fluor™ (Perkin Elmer) and Carbo Sorb® (Perkin Elmer). Oxidation efficiency was evaluated on each day of sample combustion by analyzing a commercial radiolabeled standard both directly in a scintillation cocktail and by oxidation. […] EcoLite™(+) scintillation cocktail was used for samples analyzed directly. All samples were analyzed for radioactivity in Model 2900TR or 2910TR liquid scintillation counters (Packard Instrument Company) for at least 5 min or 100 000 counts. […] All samples were analyzed in duplicate or triplicate, as applicable, if sample size allowed. If results from sample replicates (calculated as ^14C disintegrations per minute (dpm)/g sample) differed by more than 10% from the mean value and sample aliquots had radioactivity greater than 200 dpm, the sample was re‐homogenized or remixed and reanalyzed (if the sample size permitted).
Blood samples were mixed and duplicate aliquots of each (approximately 0.4 g) were combusted and analyzed by liquid scintillation […]. Plasma and urine samples were separately mixed and duplicate weighed aliquots of each (approximately 0.4 g for plasma and 0.2 g for urine) were analyzed directly by LSC. […] Feces samples were analyzed individually (samples were not combined by interval) and the weight of each individual sample was recorded. […]

CYP3A4 = tested on: CYP3A4; parameters: method as in earlier work; details: cited from earlier work
[2] = Safety and tolerability in healthy male subjects; assay type: in vivo, human
Protocol: as §1

[3] = Total radioactivity PK in whole blood; assay type: in vivo, human
Protocol: as §2
Analysis of total radioactivity data in plasma, blood, feces, and urine was performed by Covance Laboratories Inc. All sample combustions were performed in a Model 307 Sample Oxidizer (Packard Instrument Company) and the resulting ^14CO2 was trapped in a mixture of Perma Fluor™ (Perkin Elmer) and Carbo Sorb® (Perkin Elmer). Oxidation efficiency was evaluated on each day of sample combustion by analyzing a commercial radiolabeled standard both directly in a scintillation cocktail and by oxidation. […] EcoLite™(+) scintillation cocktail was used for samples analyzed directly. All samples were analyzed for radioactivity in Model 2900TR or 2910TR liquid scintillation counters (Packard Instrument Company) for at least 5 min or 100 000 counts. Each sample was homogenized or mixed before radioanalysis (unless the entire sample was used for analysis). All samples were analyzed in duplicate or triplicate, as applicable, if sample size allowed. If results from sample replicates (calculated as ^14C disintegrations per minute (dpm)/g sample) differed by more than 10% from the mean value and sample aliquots had radioactivity greater than 200 dpm, the sample was re‐homogenized or remixed and reanalyzed (if the sample size permitted).
Blood samples were mixed and duplicate aliquots of each (approximately 0.4 g) were combusted and analyzed by liquid scintillation […]. Plasma and urine samples were separately mixed and duplicate weighed aliquots of each (approximately 0.4 g for plasma and 0.2 g for urine) were analyzed directly by LSC. Urine volumes provided by the Covance clinical research unit were entered as a weight assuming a specific gravity of 1 g/mL. Feces samples were analyzed individually (samples were not combined by interval) and the weight of each individual sample was recorded. A weighed amount of methanol:water (20:80, v:v; approximately 2 to 3 times the sample weight, such that the homogenate weight:sample weight ratio was approximately 3 to 4) was added and the sample was mixed and homogenized using a probe type homogenizer. Triplicate‐weighed aliquots (approximately 0.2 g) were combusted and analyzed by LSC. The empty treatment vial from each subject was analyzed by adding a weighed amount of methanol to each vial and analyzing duplicate weighed aliquots (approximately 0.5 g) of each extract by LSC. Residual radioactivity recovered from each treatment vial was subtracted from the dose administered to the appropriate subject.
The total radioactivity in blood and plasma was determined by LSC. Nominal sampling time points were used for deriving total radioactivity blood and plasma PK data. PK parameters (maximum concentration (C max), time to maximum concentration (T max), terminal half‐life(t 1/2) time to last measurable concentration (T last), area under the curve to the last measurable time point (AUClast), area under the curve extrapolated to infinity (AUCinf)) describing blood and plasma total radioactivity were determined using non‐compartmental methods via WinNonlin® Professional (Version 6.3, Pharsight). […]

[4] = mean, through last collection interval (144 h)
[5] = single 100 mg oral dose, 4 healthy male subjects
[6] = whole blood, Median (Minimum–Maximum)

COC(=O)N[C@@H](C)CNc1nccc(-c2cn(C(C)C)nc2-c2cc(Cl)cc(NS(C)(=O)=O)c2F)n1 [encorafenib]
Fraction of oral absorption (Fa) ([1]; estimated from urine radioactivity plus fecal metabolites, assumes stability in feces and GI tract): ≥ 86%
Mass balance (total radioactivity recovered) ([1]; mean ± SD of four subjects, by end of Day 6 (144 h post-dose)): 94.5 ± 0.63 % dose
Radioactivity recovered in feces [1, 4]: 47.2 % of the dose
Radioactivity recovered in urine [1, 4]: 47.2 % of the dose and 47 % of the dose
Overall recovery of radioactivity in the excreta, in all four subjects ([1]; single oral 100 mg [14C] encorafenib, urine + feces, bound holding for each subject): ≥ 93.9% and > 90%
Contribution of CYP3A4 to metabolism (CYP3A4): 83%
Grade 2, 3 or 4 adverse events ([2]; single 100 mg oral dose): No grade 2, 3 or 4 AEs were reported
Subjects with AEs suspected to be related to the study drug [2, 5]: 50.0%
Subjects with at least one adverse event [2, 5]: 75.0%
Laboratory evaluations, vital signs, ECG ([2]; single-dose administration): no significant abnormalities
Overall safety and tolerability ([2]; single-dose administration): safe and well‐tolerated
[blood]:[plasma] AUC ratio for total radioactivity ([3]; mean): 0.58
[blood]/[plasma] total radioactivity, 1 to 24 h post-dose ([3]; mean (SD)): 0.59 [0.02]
AUCinf, total radioactivity ([3]; whole blood, Mean (SD)): 8950 (1310) ngEq*h/mL
Cmax, total radioactivity ([3]; whole blood, Mean (SD)): 1330 (103) ngEq/mL
T1/2, total radioactivity ([3]; whole blood, Mean (SD)): 4.8 h and 4.8 (0.48) h
AUCinf, total radioactivity [3, 6]: 8760 (7670–10 600) ngEq*h/mL
Cmax, total radioactivity [3, 6]: 1320 (1230–1460) ngEq/mL
T1/2, total radioactivity [3, 6]: 4.6 (4.5–5.5) h
Tmax, total radioactivity [3, 6]: 1.0 h
